# Test results taken from patent US20050197407A1, “Method and preparation for reducing irritation and/or inflammatory reaction in human skin” (PCR Technology Holdings, LC, priority 2004, published 2005).
# Test system: facial skin of humans
# Experiment: Retinoid irritation test: idebenone pre-treatment then prescription retinoid, clinician grading and TEWL
# Format: in vivo
# Method: In a test, idebenone was applied to the facial skin of humans. Two different test sites were setup whereby, one site was applied with idebenone twice a day for 2 weeks followed by a 2 week application period of a prescription retinoid (once a day, as prescribed). The remaining site was applied for 2 weeks just the prescription retinoid (once a day, as prescribed). Each test site was evaluated by a trained clinician for irritation and roughness using a 0 (none) to 4 (severe) scale pre and post retinoid treatment. Additionally, transepidermal water loss measurements (TEWL) were also made at the same time as visual evaluations.
# FIG. 1 graphically depicts the results of the test.
# [1] = facial skin, pre vs post 2 week retinoid treatment once a day, idebenone site pre-treated twice a day for 2 weeks
compound,measurement,setting,value
"COC1=C(OC)C(=O)C(CCCCCCCCCCO)=C(C)C1=O [Idebenone, 6-(10-hydroxydecyl)-2,3-dimethoxy-5-methyl-1,4-benzoquinone]","increase in irritation (0 (none) to 4 (severe) scale, trained clinician)",[1],moderate to minimal increase
same,"increase in roughness (0 (none) to 4 (severe) scale, trained clinician)",[1],moderate to minimal increase
same,increase in transepidermal water loss measurements (TEWL),[1],moderate to minimal increase
same,irritation potential produced by the prescription retinoid,idebenone used as a pre-treatment for 2 weeks,significantly reduced
